For one assay, the target named is T1, FMS kinase (Homo sapiens, UniProt P07333).
T1 construct: purchased Invitrogen (Life Technologies)
In words: LanthaScreen Eu Kinase Binding Assay (ATP, fluorescent-PolyGT substrate). Type of assay: biochemical. As for the experimental part:
IC50 values of compounds against FMS kinase were determined by LanthaScreen™ Eu Kinase Binding Assay at Invitrogen (Life Technologies Grand Island, N.Y.) where total reaction volume was 10 μL in low-volume 384-well plates (#4511, Corning). Serially diluted compounds (3-fold) were incubated with kinase (1.25 nM) for 10 min, following which a mixture of ATP (10 μM) (#A1852, Sigma, St-Louis, Mo.) and fluorescent-PolyGT substrate (200 nM) (#PV3610, Invitrogen, Life Technologies Grand Island, N.Y.) was added and incubated in dark at room temperature for 1H. After 1H, 10 μL stop solution containing Terbium labeled antibody (4 nM) (#PV3529, Invitrogen, Life Technologies Grand Island, N.Y.) and EDTA (#E5134, Sigma, St-Louis, Mo.) (20 mM) in TR-FRET dilution buffer (#PV3574, Invitrogen, Life Technologies Grand Island, N.Y.) was added. Readings were taken in a Synergy Neo Plate reader (BioTek, Winooski) at single excitation of 340 nm and Dual emission at 495 nm and 520 nm respectively.
The following equations were used for LanthaScreen Eu Kinase Binding Assay Data Analysis. Percent inhibition (100-% activity) was fitted to the “four-parameter logistic model” in XLfit for determination of IC50 values.
Background: In TR-FRET formats the signal depends on donor and acceptor labels being close together.

In a further assay the target is T2, CDK6 (Homo sapiens, UniProt Q00534).
T2 construct: purchased Invitrogen PR8422B
T2 sequence (Q00534 whole entry): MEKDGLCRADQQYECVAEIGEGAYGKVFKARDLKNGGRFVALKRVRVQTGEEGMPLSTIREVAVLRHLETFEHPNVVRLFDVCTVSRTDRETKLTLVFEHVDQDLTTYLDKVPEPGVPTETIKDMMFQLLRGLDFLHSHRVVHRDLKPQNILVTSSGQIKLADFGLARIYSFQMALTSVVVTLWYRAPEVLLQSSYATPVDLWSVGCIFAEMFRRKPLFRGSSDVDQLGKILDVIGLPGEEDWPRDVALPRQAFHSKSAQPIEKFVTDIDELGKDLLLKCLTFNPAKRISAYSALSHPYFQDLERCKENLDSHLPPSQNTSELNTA
T2 sequence (P24385 whole entry partner): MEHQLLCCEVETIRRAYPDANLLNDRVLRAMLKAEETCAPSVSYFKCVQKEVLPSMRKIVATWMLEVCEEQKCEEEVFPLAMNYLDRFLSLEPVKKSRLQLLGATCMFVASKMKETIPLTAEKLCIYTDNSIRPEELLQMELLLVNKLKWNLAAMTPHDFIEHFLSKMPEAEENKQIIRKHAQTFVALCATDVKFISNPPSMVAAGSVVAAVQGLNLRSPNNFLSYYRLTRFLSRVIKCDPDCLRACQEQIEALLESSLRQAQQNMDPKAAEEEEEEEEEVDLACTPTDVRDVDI
In words: In vitro kinase inhibition IC50, luminescence (ADP Glo), retinoblastoma substrate. The note with it: read-out: CDK6/D1 IC50. Type of assay: biochemical. As for the experimental part: (§1) IC50 values of compounds against CDK4 and CDK6 were determined by luminescence using retinoblastoma as substrate. Kinase assays were performed in kinase buffer (#PV6135, Invitrogen Life Technologies, Grand Island, N.Y.) where total reaction volume was […] in 96-well half area white plates (#3693, Costar). One microliter of 25×test compounds at specific concentrations (e.g., final concentration range: 0.1 nM-200 nM) was mixed with 10 μL of 2.5×kinase (5 nM, CDK4 #PR8064A and CDK6 #PR8422B, Invitrogen) solution and 14 μL of 4× mixed solution with retinoblastoma (1 μM, #12-439, EMD Millipore, Hayward, Calif.) and ATP (25 μM, #V7038, Promega, Madison, Wis.). The plates were covered and incubated for 2H at room temperature. At the end of incubation, 25 μL of stop solution—ADP Glo reagent (#V7002, Promega) was added. After incubation for 45 min at room temperature, 50 μL of detection reagent (##V7002, Promega) was added. Readings were taken at 15 min and 45 min incubation after detection reagent was added in a Synergy Neo Plate reader (BioTek, Winooski, Vt.) at single excitation of 340 nm and Dual emission at 495 nm and 520 nm respectively. The following equations were used in the CDK4 and CDK6 assay data analysis. Percent inhibition (100-% activity) was fitted to the “four-parameter logistic model” in XLfit for determination of IC50 values.
(§2) Percent conversion of enzyme=100−{(RLUNo Drug−No enzyme*100)/RLUNo drug+Enzyme} Equation 1:
(§3) Percent conversion at each data point=100−{(RLUAverage(Drug+enzyme)*100)!RLUNo drug+Enzyme} Equation 2:
(§4) Percent Inhibition=100*(% Conversioneach data point/% ConversionEnzyme) Equation 3: […]

The target of a further assay is T3, CDK4 (Homo sapiens, UniProt P11802).
T3 construct: purchased Invitrogen PR8064A
T3 sequence (P11802 whole entry): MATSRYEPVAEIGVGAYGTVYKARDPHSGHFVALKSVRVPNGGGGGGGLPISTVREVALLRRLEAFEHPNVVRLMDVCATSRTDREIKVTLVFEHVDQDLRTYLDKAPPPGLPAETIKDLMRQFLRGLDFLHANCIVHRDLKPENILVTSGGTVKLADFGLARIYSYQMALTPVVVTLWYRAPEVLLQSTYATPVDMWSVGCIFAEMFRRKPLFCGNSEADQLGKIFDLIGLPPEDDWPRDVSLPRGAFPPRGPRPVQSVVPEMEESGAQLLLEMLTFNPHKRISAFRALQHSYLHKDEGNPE
T3 sequence (P24385 whole entry partner): as the sequence (P24385 whole entry partner) above
The description is as above. It is filed as biochemical. The following applies: read-out: CDK4/D1 IC50. As to the method: as §1, §2, §3, §4

Assay [1] deals with MCF-7 breast adenocarcinoma cells. In words: Cancer cell proliferation assay, single agent (cell viability). Type of assay: cell-based. The following applies: Homo sapiens, MCF7, Table 4; Rb positive; treatment 144 Hr with medium change at 72 Hr; Cell Titer-Glo or resazurin. As for the experimental part:
(§5) The effects of test compounds were studied in three breast cancer cell lines of different subtype. The cancer cells (Table 3) were harvested during the logarithmic growth period and counted. Cell concentrations were adjusted to the appropriate number with respective medium and 90 μL cell suspensions were added to 96-well plates. After cells were seeded, the plates were shaken gently to distribute cells evenly and incubated at 37° C., 5% CO2 on day 1.
(§6) Cells were treated with test compounds at 7 to 9 concentrations within a desired concentration range (e.g. 1.1 nM-10 μM) on day 2 by series diluting the test compound stock solution (10 mM in DMSO) with culture medium. Treatment duration was 24 Hr for BT-549 cells and 144 Hr (with a medium change at 72 Hr) for MCF-7 and DU4475 cells. Cell viability was assessed by Cell Titer-Glo® as recommended by Promega (Cat. No.: G7572), or by resazurin assay (Sigma Aldrich, Cat. No.: R7017) post treatment.
(§7) Cell viability data were plotted using GraphPad Prism (GraphPad Software, Inc., San Diego, Calif.). In addition, a nonlinear regression model with a sigmoidal dose response and variable slope within GraphPad Prism was used to calculate the IC50 value of individual test compounds.
In general terms: In ATP-based viability assays light output follows the ATP content of the culture.

In assay [2] the test system is DU4475 breast carcinoma cells. The description is as above. The following applies: Homo sapiens, DU-4475; Table 4; Rb negative; treatment 144 Hr with medium change at 72 Hr; Cell Titer-Glo or resazurin. It is filed as cell-based. As for the experimental part:
as §5, §6, §7

Molecules are shown by their SMILES.

T1 sequence (P07333 20-972): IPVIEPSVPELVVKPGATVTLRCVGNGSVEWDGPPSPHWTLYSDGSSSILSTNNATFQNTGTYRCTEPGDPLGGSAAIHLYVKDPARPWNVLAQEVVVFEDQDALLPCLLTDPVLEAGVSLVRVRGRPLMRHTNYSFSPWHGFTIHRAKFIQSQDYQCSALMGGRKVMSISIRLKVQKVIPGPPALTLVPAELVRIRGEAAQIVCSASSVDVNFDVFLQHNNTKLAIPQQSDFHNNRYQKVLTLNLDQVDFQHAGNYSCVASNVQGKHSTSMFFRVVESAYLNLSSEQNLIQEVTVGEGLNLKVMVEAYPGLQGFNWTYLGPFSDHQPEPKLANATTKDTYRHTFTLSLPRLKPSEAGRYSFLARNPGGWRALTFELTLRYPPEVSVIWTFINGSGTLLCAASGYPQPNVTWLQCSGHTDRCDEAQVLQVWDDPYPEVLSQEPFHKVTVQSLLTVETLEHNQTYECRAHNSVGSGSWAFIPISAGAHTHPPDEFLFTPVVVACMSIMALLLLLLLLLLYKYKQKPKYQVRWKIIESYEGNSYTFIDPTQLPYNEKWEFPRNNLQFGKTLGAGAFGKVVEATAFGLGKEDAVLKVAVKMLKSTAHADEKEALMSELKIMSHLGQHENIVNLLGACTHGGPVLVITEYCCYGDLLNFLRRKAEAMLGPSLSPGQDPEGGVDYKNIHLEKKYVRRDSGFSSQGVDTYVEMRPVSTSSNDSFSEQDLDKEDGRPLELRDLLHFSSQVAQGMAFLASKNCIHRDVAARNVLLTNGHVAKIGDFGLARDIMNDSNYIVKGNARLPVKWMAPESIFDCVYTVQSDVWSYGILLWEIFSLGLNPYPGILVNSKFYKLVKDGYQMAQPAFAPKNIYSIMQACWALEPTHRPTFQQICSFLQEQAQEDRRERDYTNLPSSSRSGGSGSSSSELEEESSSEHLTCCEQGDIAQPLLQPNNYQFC

In the case of `N#Cc1cc2cnc(Nc3ccc(N4CCNCC4)cc3F)nc2n(C2CCCC2)c1=O` [Compound No. 26, 8-cyclopentyl-2-((2-fluoro-4-(piperazin-1-yl)phenyl)amino)-7-oxo-7,8-dihydropyrido[2,3-d]pyrimidine-6-carbonitrile], the IC50 on FMS kinase is 0.006 µM; at CDK6, 0.006 µM; at CDK4, 0.042 µM; in assay [1], 0.533 µM.
On to `N#Cc1cc2cnc(Nc3cccc(S(=O)(=O)N4CCC(O)CC4)c3)nc2n(C2CCCC2)c1=O` [Compound No. 18, 8-cyclopentyl-2-((3-((4-hydroxypiperidin-1-yl)sulfonyl)phenyl)amino)-7-oxo-7,8-dihydropyrido[2,3-d]pyrimidine-6-carbonitrile], for which the IC50 was 0.074 µM at FMS kinase, greater than 0.2 µM on CDK6, greater than 0.2 µM on CDK4 and 1.42 µM in assay [1].
Turning to `N#Cc1cc2cnc(Nc3ccc4c(c3)C(=O)NC4)nc2n(C2CCCC2)c1=O` [Compound No. 24, 8-cyclopentyl-7-oxo-2-((3-oxoisoindolin-5-yl)amino)-7,8-dihydropyrido[2,3-d]pyrimidine-6-carbonitrile], the IC50 on FMS kinase is 0.005 µM; at CDK6 it was 0.035 µM; at CDK4, greater than 0.2 µM; in assay [1] it was greater than 30 µM.
For `N#Cc1cc2cnc(Nc3ccc4c(c3)NC(=O)C4)nc2n(C2CCCC2)c1=O` [Compound No. 19, 8-cyclopentyl-7-oxo-2-((2-oxoindolin-6-yl)amino)-7,8-dihydropyrido[2,3-d]pyrimidine-6-carbonitrile], in that order: less than 0.001 µM, 0.038 µM, 0.035 µM and 2.37 µM.
On the same counts, the results for `N#Cc1cc2cnc(Nc3cnn(C4CCC(O)CC4)c3)nc2n(C2CCCC2)c1=O` (stereo not drawn) [Compound No. 51, 8-cyclopentyl-2-((1-(4-hydroxycyclohexyl)-1H-pyrazol-4-yl)amino)-7-oxo-7,8-dihydropyrido[2,3-d]pyrimidine-6-carbonitrile] are 0.001 µM, 0.042 µM, 0.091 µM and 0.57 µM.
For `C[C@H]1CC[C@H](n2c(=O)c(C#N)cc3cnc(Nc4ccc5c(c4)C(=O)NCC5)nc32)CC1` [Compound No. 7, 8-((1r,4r)-4-methylcyclohexyl)-7-oxo-2-((1-oxo-1,2,3,4-tetrahydroisoquinolin-7-yl)amino)-7,8-dihydropyrido[2,3-d]pyrimidine-6-carbonitrile], the IC50 at FMS kinase is 0.008 µM.
With `N#Cc1cc2cnc(Nc3cccc(S(=O)(=O)N4CCOCC4)c3)nc2n(C2CCCC2)c1=O` [Compound No. 20], the IC50 was 0.099 µM at FMS kinase, greater than 0.2 µM at CDK6, greater than 0.2 µM on CDK4 and 1.05 µM in assay [1].
Take `N#Cc1cc2cnc(Nc3ccc4c(c3)C(=O)NCCC4)nc2n(C2CCCC2)c1=O` [Compound No. 79, 8-cyclopentyl-7-oxo-2-((1-oxo-2,3,4,5-tetrahydro-1H-benzo[c]azepin-8-yl)amino)-7,8-dihydropyrido [2,3-d]pyrimidine-6-carbonitrile]: the IC50 is 0.038 µM at CDK6, greater than 0.147 µM at CDK4, 1.84 µM in assay [1] and 4.05 µM in assay [2].
For the compound `CN(C)CCN1CCc2ccc(Nc3ncc4cc(C#N)c(=O)n(C5CCCC5)c4n3)cc2C1=O` [Compound No. 68, 8-cyclopentyl-2-((2-(2-(dimethylamino)ethyl)-1-oxo-1,2,3,4-tetrahydroisoquinolin-7-yl)amino)-7-oxo-7,8-dihydropyrido[2,3-d]pyrimidine-6-carbonitrile], the IC50 at CDK6 is greater than 0.2 µM; at CDK4 it was greater than 0.2 µM; in assay [1] it was greater than 10 µM; in assay [2], greater than 10 µM.

The record behind these values is patent US20220273659A1, “HETEROCYCLIC COMPOUNDS AS KINASE INHIBITORS” (NUVATION BIO INC., priority 2019, published 2022).
